# In patent publication US7348421B1, “Methods for production of p-hydroxybenzoate in bacteria” (North Carolina State University, priority 2000, dated 2008):
# “And” between values parts separate entries of the source, which are not always exact repeats. Equal entries are not always repeated. Where two headings read alike, the source gives them in different places.
# Experiments:
# [1] = system: P. mendocina KR1-A (#362); assay type: cell-based, Pseudomonas mendocina; details: gradient 0-100 mg/L, repeated lines
# [2] = system: Pseudomonas putida DOT-T1E; assay: Halo-inhibition test with antibiotic disks on minimal medium; assay type: cell-based; details: wild-type; Halo-inhibition test
# [3] = system: P. mendocina krc16DkpobA51a (#303); assay type: cell-based, Pseudomonas mendocina; details: gradient 0-100 mg/L, repeated lines
# PhoA5 mutant = assay: Survival after sudden pHBA shock with or without Fe-citrate; assay type: cell-based, Pseudomonas putida
# strain F (DGL#325) = assay: Selection on TSA plates with toluene and pHBA; assay type: cell-based, Pseudomonas mendocina; details: 100 ppm toluene, after few day of incubation
# Protocol: Three more transfers were made in a TSA medium plus 10 g/L glucose, 100 mg/L cycloheximide, 5 g/L agar (Difco), and increasing concentrations of pHBA. The pH was adjusted to 7.2. Toluene to 100 ppm was added to the bottom of the glass desicator as a mixture of hexadecane:toluene (262 mL:26.5 mL). This mixture was expected to give 100 ppm toluene in the liquid phase in equilibrium. […]. Under microscope strain C grew in long chains.
# [4] = system: P. mendocina KR1 with pPAT8; details: gradient 0-20 g/L
# Alcaligenes eutrophus = assay type: cell-based; details: gradient of PHBA between 0 and 30 g/L
# [5] = system: P. mendocina KR1 with pPAT7; details: gradient 0-20 g/L
# Pseudomonas fluorescens = assay type: cell-based; details: gradient of PHBA between 0 and 30 g/L
# E. coli K12 (#327) = details: gradient 0 to 40 g/L, 24 h, 30° C.
# Pseudomonas putida R1 = assay type: cell-based; details: gradient of PHBA between 0 and 30 g/L
# [6] = system: Acinetobacter calcoaceticus; assay type: cell-based; details: gradient of PHBA between 0 and 30 g/L
# [7] = system: P. putida PhoA5 with pPAT8; details: gradient 0-20 g/L
# Pseudomonas putida EEZ10 = assay type: cell-based; details: gradient of PHBA between 0 and 30 g/L
# [8] = system: P. mendocina krc16DkpobA51a (#303); details: gradient 0 to 40 g/L, 24 h, 30° C.
# P. putida KT2440 = details: P. putida KT2440, plasmid none; gradient 0-20 g/L
# P. mendocina KR1 (#363) = assay: Growth on pHBA gradient plates; details: gradient 0 to 40 g/L, 24 h, 30° C.
# [9] = system: P. putida KT2440 with pPAT8; details: gradient 0-20 g/L
# Bacillus subtilis = assay type: cell-based; details: gradient of PHBA between 0 and 30 g/L
# Ralstonia solanacearum = assay type: cell-based; details: gradient of PHBA between 0 and 30 g/L
# Pseudomonas aeruginosa = assay type: cell-based; details: gradient of PHBA between 0 and 30 g/L
# [10] = system: Pseudomonas putida DOT-T1E; assay: Growth in M9 liquid medium with glucose and p-hydroxybenzoate; assay type: cell-based; details: M9 with glucose
# [11] = system: P. putida KT2440 with pPAT7; details: gradient 0-20 g/L
# [12] = system: Pseudomonas putida DOT-T1E; assay: pHBA shock after preculture on pHBA, 1 or 10 mM MgSO4; assay type: cell-based
# strain C = assay: Selection on TSA plates with toluene and pHBA; assay type: cell-based; details: 100 ppm toluene
# Protocol: Three more transfers were made in a TSA medium plus 10 g/L glucose, 100 mg/L cycloheximide, 5 g/L agar (Difco), and increasing concentrations of pHBA. The pH was adjusted to 7.2. Toluene to 100 ppm was added to the bottom of the glass desicator as a mixture of hexadecane:toluene (262 mL:26.5 mL). This mixture was expected to give 100 ppm toluene in the liquid phase in equilibrium. Selected strains C and F (DGL#325) grew on 40 g/L pHBA after few day of incubation, strain C grew at 50 g/l pHBA after 10 days of incubation. Under microscope strain C grew in long chains.
# P. mendocina KR1 = details: P. mendocina KR1, plasmid none, gradient 0-20 g/L
# Pseudomonas stutzeri = assay type: cell-based; details: gradient of PHBA between 0 and 30 g/L
# Pseudomonas vesicularis = assay type: cell-based; details: gradient of PHBA between 0 and 30 g/L
# Escherichia coli ET8000 = assay type: cell-based; details: gradient of PHBA between 0 and 30 g/L
# Enriched cultures = assay: Selection on TSA plates with toluene and pHBA; assay type: cell-based; details: dodecane:toluene overlay (100 ppm toluene)
# Protocol: Five transfers were made on glass plates with trypticase soy agar (TSA-Difco) medium with 10 g/L glucose. Toluene (˜0.5 mL) was added to the bottom of the inverted plates, saturating the medium and the gas phase. […]. This mixture was calculated to give 100 ppm toluene concentration in the liquid phase. […]
structure (smiles),measurement,setting,value
"O=C(N[C@H](CO)[C@H](O)c1ccc([N+](=O)[O-])cc1)C(Cl)Cl [CAM, chloramphenicol]",Growth (distance in mm) on CAM gradient,[1],15 mm and 10 mm
same,tolerance/sensitivity to antibiotic,[2],tolerant
same,Growth (distance in mm) on CAM gradient,[3],10 mm and 15 mm
"O=C(O)c1ccc(O)cc1 [pHBA, p-hydroxybenzoic acid]",survival after pHBA shock,"PhoA5 mutant; 12 g/L PHBA, absence of iron",about 0.0001%
same,survival after pHBA shock,"PhoA5 mutant; 12 g/L PHBA, with extra iron (Fe-citrate)",~100%
same,survival after pHBA shock,"PhoA5 mutant; 18 g/L, absence of iron",no cells survived
same,survival after pHBA shock,"PhoA5 mutant; 18 g/L, supplemented with iron",0.001%
same,pHBA concentration at which strain grew,strain F (DGL#325),40 g/L
same,pHBA Tolerance,[4],10.2 g/L
same,pHBA Tolerance,[4]; listed as PHBA,~10 g/L
same,pHBA tolerance or sensitivity,Alcaligenes eutrophus,sensitive
same,pHBA Tolerance,[5],~10 g/L
same,pHBA tolerance or sensitivity,Pseudomonas fluorescens,sensitive
same,growth on pHBA gradient plates,E. coli K12 (#327),35 mm and 20 mm
same,pHBA tolerance or sensitivity,Pseudomonas putida R1,tolerant
same,pHBA tolerance or sensitivity,[6],tolerant
same,pHBA Tolerance,[7],17 g/L
same,pHBA tolerance or sensitivity,Pseudomonas putida EEZ10,tolerant
same,growth on pHBA gradient plates,[8],10 mm and 15 mm
same,pHBA Tolerance,P. putida KT2440,17 g/L
same,growth on pHBA gradient plates,P. mendocina KR1 (#363),10 mm and 20 mm
same,pHBA Tolerance,[9],18.5 g/L
same,pHBA tolerance or sensitivity,Bacillus subtilis,sensitive
same,pHBA tolerance or sensitivity,Ralstonia solanacearum,sensitive
same,pHBA tolerance or sensitivity,Pseudomonas aeruginosa,sensitive
same,growth (CFU per mL),[10]; 6 g/L of p-hydroxybenzoate,growth was exponential
same,growth (CFU per mL),[10]; 12 or higher g/L p-hydroxybenzoate,number of viable cells decreased
same,pHBA Tolerance,[11],17 g/L
same,cell viability after pHBA shock,"[12]; cells not pregrown on pHBA, 30 and 36 g/L, 24 h after the shock",no cells were recovered
same,cell viability after pHBA shock,"[12]; cells not pregrown on pHBA, >18 g/L, 1 or 10 mM MgSO4",marked decrease in cell viability
same,cell viability after pHBA shock,"[12]; preinduced cells, 30 and 36 g/L pHBA, 1 mM MgSO4, 24 h after the shock",cells were not recoverable
same,decrease in number of viable cells after pHBA shock,"[12]; preinduced cells, 30 g/L, 10 mM MgSO4, growth resumed afterwards",~6 orders of magnitude
same,cell viability after pHBA shock,"[12]; preinduced cells, up to 0.18 g/L PHBA, regardless of MgSO4",no significant effect on cell viability
same,pHBA concentration at which strain grew,strain C; after 10 days of incubation,50 g/l
same,pHBA concentration at which strain grew,strain C; after few day of incubation,40 g/L
same,pHBA Tolerance,P. mendocina KR1,8.5 g/L
same,pHBA Tolerance,P. mendocina KR1; listed as PHBA,about 8.5 g/L
same,pHBA tolerance or sensitivity,Pseudomonas stutzeri,sensitive
same,pHBA tolerance or sensitivity,Pseudomonas vesicularis,sensitive
same,pHBA tolerance or sensitivity,Escherichia coli ET8000,tolerant
same,pHBA concentration at which cultures grew,Enriched cultures,20 g/L
